The text below walks through data of patent US20190161807A1, “RAD51C as a Human Cancer Susceptibility Gene” (Heinrich-Heine-Universität Düsseldorf, priority 2010, published 2019).

The test system of this test is RAD51C bi-allelic mutated cells. In words: Toxicity of PARP inhibitor / topoisomerase I inhibitor exposure in cells with reduced or absent RAD51C function (FIG. 5, FIG. 6). Type of test: cell-based. The settings on record: RAD51C bi-allelic mutated cells vs normal cells, mono-allelic RAD51C mutated cells and RAD51C-complemented cells.

As for `CC[C@@]1(O)C(=O)OCc2c1cc1n(c2=O)Cc2cc3ccccc3nc2-1` [camptothecin], where the note is “FIG. 6, means±SD, n=4”, the “sensitivity (toxicity) of cells towards exposure to the topoisomerase I inhibitor” value is recorded as “increased toxicities”. For the compound `CN(C)CC(=O)Nc1ccc2[nH]c(=O)c3ccccc3c2c1` [PJ34], the “sensitivity (toxicity) of cells towards exposure to the PARP inhibitor” value (FIG. 5, means±SD, n=3) was “increased toxicities”.
